The results in this text go back to patent US9150583B2 (Boehringer Ingelheim International GmbH, priority 2011, dated 2015).

As usually defined, the pIC50 is the negative decadic logarithm of the IC50, by convention in mol/L. By half-life is commonly meant the time in which the quantity being followed falls by half.

Data set [1] deals with Recombinant human CETP (Homo sapiens (Human), UniProt P11597). Nature of the data set: CETP in vitro assay (fluorometric, Roar Biomedical). The class given is biochemical. The note with it: 3 hours at 37° C., compound concentrations between 1 nM and 30 μM, read-out: IC50 values for inhibition of CETP. The protocol:
CETP inhibitory activity of compounds of the present invention can be determined in a fluorometric assay purchased from Roar Biomedical, Inc. (New York, N.Y., USA). […] Recombinant human CETP was partially purified from medium conditioned by CETP expressing CHO cells. In a 384 well format 2.5 μl of compound solution in DMSO was combined with 2 μl of donor solution, 2 μl of acceptor solution and 0.8 μl of recombinant human CETP solution in a total volume of 100 μl with assay buffer and incubated for 3 hours at 37° C. The fluorescence intensity was measured at excitation wavelength of 485 nm and emission wavelength of 535 nm. IC50 values are calculated from dose effect curves from compound concentrations between 1 nM and 30 μM.

A short description of data set [2]: Assay for metabolic degradation. The conditions noted are these: pH 7.6; pooled human liver microsomes, 37° C., microsomal protein 1 mg/ml, test compound 1 μM, NADPH 1 mM; read-out: half-life (t½) values for human liver microsomal metabolic degradation. Format: in vitro ADME. The protocol:
Assay for Metabolic Degradation
The metabolic degradation of the test compound is assayed at 37° C. with pooled human liver microsomes. The final incubation volume of 100 μl per time point contains TRIS buffer pH 7.6 at room temperature (0.1 M), magnesium chloride (5 mM), microsomal protein (1 mg/ml) and the test compound at a final concentration of 1 μM.
Following a short preincubation period at 37° C., the reactions were initiated by addition of beta-nicotinamide adenine dinucleotide phosphate, reduced form (NADPH, 1 mM) and terminated by transferring an aliquot into solvent after different time points. Additionally, the NADPH-independent degradation was monitored in incubations without NADPH, terminated at the last time point. The quenched incubations are pelleted by centrifugation (10000 g, 5 min). An aliquot of the supernatant is assayed by LC-MS/MS for the amount of parent compound. The half-life (t ½) is determined by the slope of the semilogarithmic plot of the concentration-time profile.
In general terms: Microsomes from liver hold many membrane-bound enzymes, among them those of drug oxidation.

pIC50: −log10 of the molar value.

Sequence of Recombinant human CETP (P11597 18-493): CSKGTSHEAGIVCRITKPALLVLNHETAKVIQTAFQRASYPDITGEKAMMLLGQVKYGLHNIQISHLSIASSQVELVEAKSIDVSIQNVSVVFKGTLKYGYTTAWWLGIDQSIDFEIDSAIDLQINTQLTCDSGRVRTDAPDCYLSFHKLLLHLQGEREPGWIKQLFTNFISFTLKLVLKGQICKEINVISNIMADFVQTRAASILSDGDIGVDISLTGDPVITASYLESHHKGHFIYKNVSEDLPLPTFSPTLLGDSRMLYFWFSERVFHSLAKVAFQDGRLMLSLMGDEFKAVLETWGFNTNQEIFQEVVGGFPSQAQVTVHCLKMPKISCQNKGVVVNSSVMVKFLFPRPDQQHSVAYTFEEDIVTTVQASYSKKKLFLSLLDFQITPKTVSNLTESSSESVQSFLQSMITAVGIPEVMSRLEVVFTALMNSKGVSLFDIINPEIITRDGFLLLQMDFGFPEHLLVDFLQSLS

For `CC(C)c1nc2c(c3c1[C@@H](c1ccc(C(F)(F)F)c(C#N)c1)OC31CCOCC1)[C@@H](O)CC1(CC1)C2` [Example 2], the pIC50 in data set [1] is 7.74. In addition, in data set [2], the half-life at 1 μM is over 2.17 h.
As to `CC(C)c1nc2c(c3c1[C@@H](c1ccc(C(F)(F)F)nc1)OC31CCOCC1)[C@@H](O)CC1(CC1)C2` [Example 4], the pIC50 in data set [1] is 7.05.
Turning to `CC(C)c1nc2c(c3c1[C@@H](c1ccc(C(F)(F)F)cc1)OC31CCOCC1)[C@@H](O)CC1(CC1)C2` [Example 1, (3R,9S)-4-isopropyl-7,7-(ethan-1,2-diyl)-3-(4-(trifluoromethyl)phenyl)-2′,3′,5′,6,6′,7,8,9-octahydro-3H-spiro[furo[3,4-c]quinoline-1,4′-pyran]-9-ol], the pIC50 in data set [1] was 7.82. Moreover, in data set [2], the half-life at 1 μM was over 2.17 h.
Regarding `CC(C)c1nc2c(c3c1[C@@H](c1ccc(C(F)(F)F)nc1)OC31CCOCC1)[C@@H](O)CC1(CC1)[C@H]2O` [Example 8, (3R,6R,9S)-4-isopropyl-7,7-(ethan-1,2-diyl)-3-(6-(trifluoromethyl)pyridin-3-yl)-2′,3′,5′,6,6′,7,8,9-octahydro-3H-spiro[furo[3,4-c]quinoline-1,4′-pyran]-6,9-diol], the half-life at 1 μM in data set [2] was over 2.17 h.
Consider `CC(C)c1nc2c(c3c1[C@@H](c1ccc(C(F)(F)F)cc1)OC31CCOCC1)[C@@H](O)CC1(CC1)[C@H]2O` [Example 5, (3R,6R,9S)-4-isopropyl-7,7-(ethan-1,2-diyl)-3-(4-(trifluoromethyl)phenyl)-2′,3′,5′,6,6′,7,8,9-octahydro-3H-spiro[furo[3,4-c]quinoline-1,4′-pyran]-6,9-diol], for which the pIC50 in data set [1] is 8.05. Further, the half-life at 1 μM in data set [2] is 0.95 h.
Regarding `COc1cc([C@H]2OC3(CCOCC3)c3c2c(C(C)C)nc2c3[C@@H](O)CC3(CC3)C2)ccc1C(F)(F)F` [Example 3, (3R,9S)-4-isopropyl-7,7-(ethan-1,2-diyl)-3-(3-methoxy-4-(trifluoromethyl)phenyl)-2′,3,5′,6,6,7,8,9-octahydro-3H-spiro[furo[3,4-c]quinoline-1,4′-pyran]-9-ol], the pIC50 in data set [1] is 7.96.
Still for that read-out and setting: next, `CC(C)c1nc2c(c3c1[C@@H](c1ccc(C(F)(F)F)c(C#N)c1)OC31CCOCC1)[C@@H](O)CC1(CC1)[C@H]2O` [Example 6, 5-((3R,6R,9S)-6,9-dihydroxy-4-isopropyl-7,7-(ethan-1,2-diyl)-2′,3′,5′,6,6′,7,8,9-octahydro-3H-spiro[furo[3,4-c]quinoline-1,4′-pyran]-3-yl)-2-(trifluoromethyl)benzonitrile]: 7.37; `COc1cc([C@H]2OC3(CCOCC3)c3c2c(C(C)C)nc2c3[C@@H](O)CC3(CC3)[C@H]2O)ccc1C(F)(F)F` [Example 7, (3R,6R,9S)-4-isopropyl-7,7-(ethan-1,2-diyl)-3-(3-methoxy-4-(trifluoromethyl)phenyl)-2′,3′,5′,6,6′,7,8,9-octahydro-3H-spiro[furo[3,4-c]quinoline-1,4′-pyran]-6,9-diol]: 7.96.
